Measured values reported in patent publication US8299238B2, “Steroidogenesis modified cells and methods for screening for endocrine disrupting chemicals” (University of Saskatchewan, priority 2009, dated 2012).

How the values were obtained:
H295R cells [1] = conditions: H295R cells (parental or unmodified); cited from earlier work
aromatase (CYP19) = target: T1, aromatase (CYP19) (Homo sapiens, UniProt P11511); conditions: cited from earlier work
T1 sequence (P11511 1-503): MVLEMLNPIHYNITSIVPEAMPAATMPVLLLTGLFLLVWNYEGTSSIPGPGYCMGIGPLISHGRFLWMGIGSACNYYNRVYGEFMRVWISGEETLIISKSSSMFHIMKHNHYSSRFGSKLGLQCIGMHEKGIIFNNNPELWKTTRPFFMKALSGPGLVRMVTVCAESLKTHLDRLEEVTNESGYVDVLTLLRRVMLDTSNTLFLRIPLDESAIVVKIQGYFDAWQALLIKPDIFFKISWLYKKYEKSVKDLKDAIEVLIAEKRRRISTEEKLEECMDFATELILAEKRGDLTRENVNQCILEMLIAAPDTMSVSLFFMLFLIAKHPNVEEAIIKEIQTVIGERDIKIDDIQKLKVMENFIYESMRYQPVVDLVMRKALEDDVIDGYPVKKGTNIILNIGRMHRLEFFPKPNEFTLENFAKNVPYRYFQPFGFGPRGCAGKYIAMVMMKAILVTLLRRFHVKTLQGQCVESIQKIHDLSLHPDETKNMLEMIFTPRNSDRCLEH

aromatase = target: T2, aromatase (Homo sapiens, UniProt P11511); conditions: human ovarian tumor cells (KGN); cited from earlier work
T2 construct: endogenous in cells; host or cells: KGN human ovarian tumor cells
T2 sequence (P11511 1-503): T1 sequence (P11511 1-503)

[2] = in vivo; cited from earlier work
[3] = cited from earlier work
ER = conditions: cited from earlier work
estrogen receptor = conditions: cited from earlier work
esterase = conditions: in vitro; cited from earlier work
H295R cells [4] = assay: Chemical exposure, steroid production in unaltered H295R cells; format: cell-based, human; conditions: 48 h
Protocol: (§1) For instrumental detection of steroids, culture medium samples were extracted by ethyl acetate/hexane (v/v, 50/50) followed by LC-MS/MS analysis. […] C-d4 was provided by Cambridge (Andover, Mass., USA), other labelled standards were provided by C/D/N Isotope (Pointe-Claire, Quebec, Canada). Test chemicals (e.g. test substances) were obtained from Sigma. […] For all other hormones, chromatography was performed using a nano-pure water and methanol. Sample extract was separated by a 100 mm×2.1 mm Thermo Scientific Betasil C18 column (5 μm pore size) and then analyzed by a triple quadrapole tandem mass spectrometer (Waters, USA). All data were acquired and processed with Analyst Software, Ver. 1.4.1 (ABI-Sciex).
(§2) Cells were exposed to model chemicals in 24-well cell culture plates (COSTAR, Bucks, UK). One ml of cell suspension was added to each well and cells cultured for 24 to 48 h. Cells were exposed to chemicals dissolved in dimethyl sulfoxide (DMSO; Sigma-Aldrich, St. Louis, Mo.). Forskolin (FOR) was obtained from Sigma Chemical Co. (St. Louis, Mo., USA) and Prochloraz (PRO) was purchased from Aldrich (St. Louis, Mo., USA). The culture medium was collected from each well after 48 h and stored at −80° C. until further measurement.

H295R/CYP21A2-KD cells = assay: Chemical exposure, steroid production in H295R/CYP21A2-KD cells; format: cell-based, human
Protocol: as §1, §2

[5] = tested on: female rat primary granulosa cells; conditions: cited from earlier work

Row | Compound | Effect type: estradiol (E2) production (H295R cells [1]) | Effect type: testosterone (T) production (H295R cells [1]) | further results
1 | CCC1(c2ccc(N)cc2)CCC(=O)NC1=O (stereo not drawn) [Aminoglutethimide] | Medium to weak inhibitor of T and E2 | Medium to weak inhibitor of T and E2 | –
2 | CCNc1nc(Cl)nc(NC(C)C)n1 [Atrazine] | Weak inducer of E2 production. | – | Effect on aromatase (CYP19) activity in vitro (aromatase (CYP19)): Aromatase inducer in vitro
3 | CCCCNC(=O)n1c(NC(=O)OC)nc2ccccc21 [Benomyl] | inducer or negative for E2 production. | Weak inhibitor of T production; Weak | Effect on aromatase activity (aromatase): Has been shown to induce aromatase; Effect on aromatase (CYP19) activity in vitro (aromatase (CYP19)): Aromatase inducer in vitro
4 | CC(C)(c1ccc(O)cc1)c1ccc(O)cc1 [Bisphenol A] | inducer | inhibitor | Uterrotrophic assay result [2]: estradiol. Tested positive for ER; Effect on progesterone (synthesis) in vitro [3]: Some evidence that alters; ER binding in vitro (ER): estradiol. Tested positive for ER
5 | C#C[C@]1(O)CC[C@H]2[C@@H]3CCC4=Cc5oncc5C[C@]4(C)[C@H]3CC[C@@]21C [Danazol] | medium to strong inhibitor of estradiol. | Negative for effects on testosterone; | –
6 | CCCCC(CC)COC(=O)c1ccccc1C(=O)OCC(CC)CCCC (stereo not drawn) [Di (2-ethylhexyl) phthalate (DEHP), Di (2-ethylhexyl) phthalate] | inducer of estradiol in H295R cells. | – | –
7 | CNC(=O)CSP(=S)(OC)OC [Dimethoate] | increases testosterone and estradiol | increases testosterone and estradiol | Effect on aromatase (CYP19) activity in vitro (aromatase (CYP19)): not affect aromatase activity in vitro;; Effect on progesterone (synthesis) in vitro [3]: Has been shown to decrease
8 | OC(c1ccc(Cl)cc1)(c1cncnc1)c1ccccc1Cl (stereo not drawn) [Fenarimol] | not as unequivocal; weak inhibitor of | – | –
9 | CC(C)(C)NC(=O)[C@H]1CC[C@H]2[C@@H]3CC[C@H]4NC(=O)C=C[C@]4(C)[C@H]3CC[C@]12C [Finasteride] | negative for effects on estradiol. | Weak inhibitor of testosterone; | –
10 | O=c1c(-c2ccc(O)cc2)coc2cc(O)cc(O)c12 [Genistein] | Medium inducer of E2 and weak | inhibitor of T production. Weak | Estrogen receptor agonism (estrogen receptor): estrogen receptor agonist
11 | CC(=O)N1CCN(c2ccc(OCC3COC(Cn4ccnc4)(c4ccc(Cl)cc4Cl)O3)cc2)CC1 (stereo not drawn) [Ketoconazole] | Medium to weak inhibitor of E2 | Strong inhibitor of T production; | Effect type: progesterone production (H295R cells [1]): production; Induces progesterone
12 | N#Cc1ccc(C(c2ccc(C#N)cc2)n2cncn2)cc1 [Letrozole] | Strong inhibitor of E2 production. | Weak inhibitor of T production. | –
13 | CCSC(=O)N1CCCCCC1 [Molinate] | – | negative/weak inhibitor of T | Inhibition of esterase activity (esterase): vitro, molinate is a poor
14 | CCCCOC(=O)c1ccc(O)cc1 [Paraben (Butyl paraben), Butyl paraben] | Weak inducer of E2, and weak | inhibitor of T production. | –
15 | CCCN(CCOc1c(Cl)cc(Cl)cc1Cl)C(=O)n1ccnc1 [Prochloraz] | Strong inhibitor of T and E2 | Strong inhibitor of T and E2 | Effect on production of E1 (H295R cells [4]): inhibited; Effect on production of E2 (H295R cells [4]): inhibited; Effect on production of T (H295R cells [4]): inhibited; Effect on progesterone production (H295R cells [4]; 0.1 μM to 10 μM, dose-dependent): increased; Effect on progesterone production (H295R/CYP21A2-KD cells): increased; Effect on production of E1 (H295R/CYP21A2-KD cells; H295R/CYP21A2-KD, 48 h): inhibited; Effect on production of E2 (H295R/CYP21A2-KD cells; H295R/CYP21A2-KD, 48 h): inhibited; Effect on production of T (H295R/CYP21A2-KD cells; H295R/CYP21A2-KD, 48 h): inhibited
16 | COc1nc(NC(C)C)nc(NC(C)C)n1 [Prometon] | Weak inducer of E2 production; | Negative for T. | –
17 | CC#C[C@]1(O)CC[C@H]2[C@@H]3CCC4=CC(=O)CCC4=C3[C@@H](c3ccc(N(C)C)cc3)C[C@@]21C [RU-486/mifepristone, mifepristone] | medium to strong inducer of estradiol. | Negative for effects on testosterone; | ER result (mode of action) (estrogen receptor): Negative for ER very
18 | C[C@]12CC[C@H]3[C@@H](CC[C@@]45O[C@@H]4C(O)=C(C#N)C[C@]35C)[C@@H]1CC[C@@H]2O [Trilostane] | Strong inducer of T and E2 | Strong inducer of T and E2 | –
19 | C=CC1(C)OC(=O)N(c2cc(Cl)cc(Cl)c2)C1=O (stereo not drawn) [Vinclozolin] | Weak inducer of and moderate | inhibitor of T production. | –
20 | CCCCC(CC)COC(=O)c1ccccc1C(=O)O (stereo not drawn) [monoethylhexyl phthalate (MEHP), monoethylhexyl phthalate] | – | – | Effect on estradiol production [5]: (MEHP) has been shown to suppress
21 | Nonoxynol-9 | Negative for effects on testosterone | Negative for effects on testosterone | –
